Measurements reported in US4490370A, “Naphthylglycyl cephalosporin derivatives” (priority 1983, dated 1984).
Where two headings read alike, the source gives them in different places.

Legend:
Format in all cases: cell-based
[1] = system: Staph. aureus; experiment: Agar dilution MIC, Staph. aureus; conditions: Staphylococcus aureus
Excerpt: (§1) The following Tables present typical minimum inhibitory concentrations (MIC's) in μg/ml for the compounds when evaluated against the indicated microorganisms.

[2] = system: Staph. epi; experiment: Agar dilution MIC, Staph. epi
Excerpt: as §1

[3] = system: Strep. A; experiment: Agar dilution MIC, Strep. A
Excerpt: (§2) A typical and preferred compound provided by this invention is 7-(2-naphthylglycylamido)-3-methyl-3-cephem-4-carboxylic acid, the compound of Example 3. The antibacterial activity of this compound and several others of the invention has been determined in standard in vitro agar dilution assays against a variety of gram positive microorganisms. The following Tables present typical minimum inhibitory concentrations (MIC's) in μg/ml for the compounds when evaluated against the indicated microorganisms. MIC's for several known compounds are also presented for comparison.

[4] = system: Strep. PN; experiment: Agar dilution MIC, Strep. PN; conditions: Table I, strain PARK; read-out: MIC
Excerpt: as §1

[5] = system: H. influ.; experiment: Agar dilution MIC, H. influenza; conditions: read-out: MIC
Excerpt: as §1

[6] = system: Klebsiella; experiment: Agar dilution MIC, Klebsiella; conditions: Klebsiella
Excerpt: as §2

[7] = system: B. Fragilis; experiment: Expanded spectrum MIC, B. Fragilis; conditions: Bacteroides fragilis, Table III, read-out: MIC
Excerpt: as §2

[8] = Table I, strain EPI1, read-out: MIC

Measured: MIC

CC1=C(C(=O)O)N2C(=O)[C@@H](NC(=O)[C@H](N)c3ccccc3)[C@H]2SC1 [Cephalexin, reference compound]
1 µg/mL: [1]; Table III, strain 8438, read-out: MIC | [1]; Table III, strain 8787, read-out: MIC
> 64 µg/mL: [7]; strain 10668 | [7]; strain 10683 | [7]; strain 10774
128 µg/mL: [1]; Table I, strain S13E
0.5 µg/mL: [3]
16 µg/mL: [5]; Table III, strain 102 | [5]; Table III, strain 103 | [5]; Table III, strain 104 | [5]; Table III, strain 109 | [5]; Table III, strain 111 | [7]; strain 180-821 | [7]; strain 10817 | [7]; strain 10837 | [7]; strain 107268
2 µg/mL: [1]; Table III expanded spectrum, strain 8725, read-out: MIC | [1]; Table III, strain 9050, read-out: MIC | [1]; Table III, strain 9136, read-out: MIC | [4]
64 µg/mL: [7]; strain 10695 | [7]; strain 10750
4 µg/mL: [5]; Table III, strain 105 | [6]
8 µg/mL: [2] | [5]; Table I, strain 251 | [5]; Table I, strain BRUN | [5]; Table III, strain 101 | [5]; Table III, strain 106 | [5]; Table III, strain 107 | [5]; Table III, strain 108 | [5]; Table III, strain 110
32 µg/mL: [2]; [8] | [7]; strain 107266

CC1=C(C(=O)O)N2C(=O)C(NC(=O)[C@H](N)c3ccc4cc(O)ccc4c3)C2SC1 (stereo partly drawn) [Example 11, D-7-(6-hydroxy-2-naphthylglycyl-amido)-3-methyl-3-cephem-4-carboxylic acid]
2 µg/mL: [2]; Table II, strain 269, read-out: MIC | [2]; Table II, strain 285, read-out: MIC
16 µg/mL: [5]; Table II, strain R465
1 µg/mL: [1]; Table II, strain S226, read-out: MIC | [1]; Table II, strain S229, read-out: MIC | [1]; Table II, strain S234, read-out: MIC | [1]; Table II, strain S237, read-out: MIC | [1]; Table II, strain S238, read-out: MIC | [1]; Table II, strain S239, read-out: MIC | [2]; Table I, strain 222, read-out: MIC | [2]; Table II, strain 286, read-out: MIC
> 64 µg/mL: [5]; Table II, strain M366 | [5]; Table II, strain STEL
0.25 µg/mL: [4]
32 µg/mL: [1]; Table I, strain X400, read-out: MIC
8 µg/mL: [1]; Table I, strain V41, read-out: MIC | [5]; Table I, strain BRUN
0.125 µg/mL: [3]; Table I, strain C203, read-out: MIC
0.5 µg/mL: [1]; Table I, strain X1.1, read-out: MIC | [1]; Table II, strain S224, read-out: MIC | [1]; Table II, strain S225, read-out: MIC | [1]; Table II, strain S227, read-out: MIC | [1]; Table II, strain S228, read-out: MIC | [1]; Table II, strain S230, read-out: MIC | [1]; Table II, strain S231, read-out: MIC | [2]; Table II, strain 219, read-out: MIC
4 µg/mL: [2]; [8] | [2]; Table II expanded spectrum, strain EPI1, read-out: MIC | [2]; Table II, strain 270, read-out: MIC | [6]; Table I, strain X26, read-out: MIC
